≈ marks a conversion by molar mass, not a printed value. Where two headings read alike, the source gives them in different places. *1 amine or outer side, *2 acyl side, *3 side chain or, on linkers, in order; H or OH if unused. Where a SMILES comes first, the peptide text is derived from it. [ ]: non-standard residue; d: D form. The star is where a group is joined. X1 = CCCCCCC(=O)N[C@H]1C[C@@H](C(=O)[*:2])N([*:1])C1; Phenylacetyl(4-Ph) = O=C(Cc1ccc(-c2ccccc2)cc1)*; X4 = O=C([C@@H]1C[C@H](N[*:3])CN1[*:1])[*:2]; Diphenylacetyl = O=C(C(c1ccccc1)c1ccccc1)*; Bip = N[C@@H](Cc1ccc(-c2ccccc2)cc1)C(=O)O
Experiments:
Candida albicans [1] = system: Candida albicans
Description: (§1) Lyophilized peptides were weighed on a Microbalance (Mettler MT5) and dissolved in sterile water containing 0.01% acetic acid Tachyplesin was purchased from Bachem Ltd. (Bubendorf Switzerland).
(§2) The antimicrobial activities of the peptides were determined by the standard NCCLS broth microdilution method (see ref 1, below) examined in sterile 96-wells plates (Nunclon polystyrene microtiter plates) in a total volume of 100 μl. […] 10^6 colony forming units (CFU)/ml for bacteria or 5×10^3 CFU/ml for Candida. Aliquots (50 μl) of the innocula were added to 50 μl of MH broth containing the peptide in serial twofold dilutions. The microorganisms used were Escherichia coli (ATCC 25922), Pseudomnonas aeruginosa (P. aeruginosa) (ATCC 27853), Stahylococcus aureus (ATCC 29213 and ATCC 25923) and Candida albicans. A selected number of peptides were screened for activity against a larger panel of gram-negative strains. These strains were; Escherichia coli ATCC 43827 and clinical isolates of Pseudomonas (P. aeruginosa V07 14482, P. aeruginosa 15288, P. aeruginosa V02 15328 and P. aeruginosa V09 16085) and Acinetobacter (Acinetobacter V04 19905/1, Acinetobacter V12 21143/1 and Acinetobacter V12 21193/1).

[2] = system: Escherichia coli (ATCC 25922)
Description: as §1, §2

[3] = system: Staphylococcus aureus ATCC 25923
Description: as §1, §2

[4] = system: Staphylococcus aureus ATCC 29213
Description: as §1, §2

[5] = system: human red blood cells (hRBC); assay: Hemolysis of human red blood cells at 100 μg/ml peptide; conditions: 100 μg/ml of peptide, 20% v/v hRBC, 1 hour at 37° C.
Description: Hemolysis of red blood cells is often employed for assessment of toxicity of related compounds such as protegrin or tachyplesin. Values are given as %-lysis of red blood cells observed at a concentration of 100 μg/ml.
The peptides were tested for their hemolytic activity against human red blood cells (hRBC). Fresh hRBC were washed three times with phosphate buffered saline (PBS) by centrifugation for 10 min at 2000×g. Peptides at a concentration of 100 μg/ml were incubated with 20% v/v hRBC for 1 hour at 37° C. The final erythrocyte concentration was appr. 0.9×10^9/ml. A value of 0% resp. 100% cell lysis was determined by incubation of the hRBC in the presence of PBS alone and resp. 0.1% Triton X-100 in H2O. The samples were centrifuged and the supernatant was 20 fold diluted in PBS buffer and the optical density (OD) of the sample at […] was measured. […] Percent hemolysis was calculated as follows: (OD540peptide/OD540H2O)×100%.

Candida albicans [6] = system: Candida albicans; remark: listed apart in the source
Description: as §2
(§3) Salt sensitivity of the peptides was tested by the microtiter serial dilution assay as described above. Only MH broth was replaced by MH broth containing 1% NaCl.

[7] = system: Escherichia coli ATCC 25922
Description: as §2, §3

[8] = system: Pseudomonas putida ATCC 27853
Description: as §2, §3

[9] = system: Staphylococcus aureus ATCC 25923; remark: listed apart in the source
Description: as §2, §3

[10] = system: Staphylococcus aureus ATCC 29213; remark: listed apart in the source
Description: as §2, §3

[11] = system: gram-positive and gram-negative bacteria; conditions: background statement; cited from earlier work
human red blood cells = conditions: cited from earlier work

| Compound | MIC Candida albicans (Candida albicans [1]; Table 8, Mueller-Hinton broth) | MIC Escherichia coli ATCC 25922 ([2]; Table 8, Mueller-Hinton broth) | MIC Staphylococcus aureus ATCC 25923 ([3]; Table 8, Mueller-Hinton broth) | MIC Staphylococcus aureus ATCC 29213 ([4]; Table 8, Mueller-Hinton broth) | Hemolyses hRBC (percentage hemolyses) [5] | antimicrobial activity [11] | also measured |
| --- | --- | --- | --- | --- | --- | --- | --- |
| CC(C)C[C@@H]1NC(=O)[C@H](Cc2c[nH]c3ccccc23)NC(=O)[C@H](CC(C)C)NC(=O)[C@@H]2CCCN2C(=O)[C@H]2CCCN2C(=O)[C@H](C(C)C)NC(=O)[C@H](CCCNC(=N)N)NC(=O)[C@H](Cc2ccc(O)cc2)NC(=O)[C@H](CCCNC(=N)N)NC(=O)[C@H](Cc2ccc(-c3ccccc3)cc2)NC(=O)[C@H](CCCNC(=N)N)NC(=O)[C@H](CCCNC(=N)N)NC(=O)[C@H](CCCCN)NC(=O)[C@H](CCCCN)NC1=O [Example 232] (cyclo(LWLKKRR[Bip]RYRV[dP]P)) | 9.4 µg/mL (≈ 4.76 µM) | 6.2 µg/mL (≈ 3.14 µM) | 6.2 µg/mL (≈ 3.14 µM) | 9.4 µg/mL (≈ 4.76 µM) | 1.5% |  |  |
| CCCCCCC(=O)N[C@H]1C[C@H]2C(=O)N[C@@H](CC(C)C)C(=O)N[C@@H](CCCNC(=N)N)C(=O)N[C@@H](CC(C)C)C(=O)N[C@@H](CCCCN)C(=O)N[C@@H](CCCCN)C(=O)N[C@@H](CCCNC(=N)N)C(=O)N[C@@H](CCCNC(=N)N)C(=O)N[C@@H](Cc3c[nH]c4ccccc34)C(=O)N[C@@H](CCCCN)C(=O)N[C@@H](Cc3ccc(O)cc3)C(=O)N[C@@H](CCCNC(=N)N)C(=O)N[C@@H](C(C)C)C(=O)N3CCC[C@@H]3C(=O)N2C1 [Example 256] (cyclo(KKRRWKYRV[dP][X1]LRL)) |  |  |  |  |  |  | MIC Candida albicans (Candida albicans [1]): 6.2 µg/mL (≈ 3.09 µM); MIC Escherichia coli ATCC 25922 ([2]; ATCC 25922): 3.1 µg/mL (≈ 1.55 µM); MIC Staphylococcus aureus ATCC 25923 ([3]; ATCC 25923): 6.2 µg/mL (≈ 3.09 µM); MIC Staphylococcus aureus ATCC 29213 ([4]; ATCC 29213): 6.2 µg/mL (≈ 3.09 µM); Minimal inhibitory concentration (MIC) Candida albicans (Candida albicans [6]): 25 µg/mL (≈ 12.5 µM); Minimal inhibitory concentration (MIC) Escherichia coli ATCC 25922 [7]: 6.2 µg/mL (≈ 3.09 µM); Minimal inhibitory concentration (MIC) Pseudomonas putida ATCC 27853 [8]: 6.2 µg/mL (≈ 3.09 µM); Minimal inhibitory concentration (MIC) Staphylococcus aureus ATCC 25923 [9]: 25 µg/mL (≈ 12.5 µM); Minimal inhibitory concentration (MIC) Staphylococcus aureus ATCC 29213 [10]: 25 µg/mL (≈ 12.5 µM) |
| CC(C)C[C@@H]1NC(=O)[C@H](CCCNC(=N)N)NC(=O)[C@H](CC(C)C)NC(=O)[C@@H]2C[C@H](NC(=O)Cc3ccc(-c4ccccc4)cc3)CN2C(=O)[C@H]2CCCN2C(=O)[C@H](C(C)C)NC(=O)[C@H](CCCNC(=N)N)NC(=O)[C@H](Cc2ccc(O)cc2)NC(=O)[C@H](CCCCN)NC(=O)[C@H](Cc2c[nH]c3ccccc23)NC(=O)[C@H](CCCNC(=N)N)NC(=O)[C@H](CCCNC(=N)N)NC(=O)[C@H](CCCCN)NC(=O)[C@H](CCCCN)NC1=O [Example 258] (cyclo(KKRRWKYRV[dP][X4](Phenylacetyl(4-Ph))LRL)) | 12.5 µg/mL (≈ 5.99 µM) | 6.2 µg/mL (≈ 2.97 µM) | 6.2 µg/mL (≈ 2.97 µM) | 6.2 µg/mL (≈ 2.97 µM) | 23.6% |  |  |
| CC(C)C[C@@H]1NC(=O)[C@H](CCCNC(=N)N)NC(=O)[C@H](CC(C)C)NC(=O)[C@@H]2C[C@H](NC(=O)C(c3ccccc3)c3ccccc3)CN2C(=O)[C@H]2CCCN2C(=O)[C@H](C(C)C)NC(=O)[C@H](CCCNC(=N)N)NC(=O)[C@H](Cc2ccc(O)cc2)NC(=O)[C@H](CCCCN)NC(=O)[C@H](Cc2c[nH]c3ccccc23)NC(=O)[C@H](CCCNC(=N)N)NC(=O)[C@H](CCCNC(=N)N)NC(=O)[C@H](CCCCN)NC(=O)[C@H](CCCCN)NC1=O [Example 259] (cyclo(KKRRWKYRV[dP][X4](Diphenylacetyl)LRL)) | 12.5 µg/mL (≈ 5.99 µM) | 6.2 µg/mL (≈ 2.97 µM) | 6.2 µg/mL (≈ 2.97 µM) | 6.2 µg/mL (≈ 2.97 µM) | 18.0% |  |  |
| CC(C)C[C@H](NC(=O)[C@H](CCCNC(=N)N)NC(=O)CNC(=O)CNC(=O)[C@@H](N)CCCNC(=N)N)C(=O)N[C@H]1CSSC[C@@H](C(=O)N[C@H](C(=O)NCC(=O)N[C@@H](CCCNC(=N)N)C(N)=O)C(C)C)NC(=O)[C@H](C(C)C)NC(=O)[C@@H]2CSSC[C@H](NC(=O)[C@H](Cc3ccc(O)cc3)NC1=O)C(=O)N[C@@H](CCCNC(=N)N)C(=O)N[C@@H](CCCNC(=N)N)C(=O)N[C@@H](CCCNC(=N)N)C(=O)N[C@@H](Cc1ccccc1)C(=O)N2 [protegrin] |  |  |  |  |  | potent and similar activity | hemolytic activity (human red blood cells): high hemolytic activity |
| Gramicidin S |  |  |  |  |  | potent antimicrobial activity | hemolytic activity (human red blood cells; background statement): high hemolytic activity |
